Key:
[1] = target: T1, MAPK1(ERK2) enzyme (Homo sapiens, UniProt P28482); assay: Z-Lyte Kinase Assay of ERK2; format: biochemical; conditions: read-out: Example 18 IC50
T1 construct: purchased Invitrogen PV3313
Summary of the method: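 FRET-based Z-LYTE assay using ERK2 kinase with Ser/Thr3 peptide; compound tested at 0.00046–1 μM final in 2% DMSO. Kinase reaction ran 1 h at 25-30° C, followed by 1 h development. The coumarin/fluorescein emission ratio (445/520 nm) gave % phosphorylation, and IC50 was fitted from inhibition relative to uninhibited control.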

[2] = tested on: p-RSK (Thr359) in colo205 cells; assay: p-RSK (Thr359) Acumen Assay in Colo205; format: cell-based; conditions: Homo sapiens, COLO 205, 1 hour compound incubation, read-out: Example 19 IC50
Summary of the method: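 Colo205 cells (4000/well, seeded overnight in 10% FBS) were exposed 1 hour at 37° C to compound added from a 3–0.001 μM dilution series in 5% DMSO. Cells were then fixed, permeabilised and immunostained for p-RSK Thr359, with PI counterstain. Acumen cytometry gave the percentage of positive cells, normalised to untreated wells and 3 uM GDC0994 wells, for the IC50 fit.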

T1 sequence (P28482 whole entry): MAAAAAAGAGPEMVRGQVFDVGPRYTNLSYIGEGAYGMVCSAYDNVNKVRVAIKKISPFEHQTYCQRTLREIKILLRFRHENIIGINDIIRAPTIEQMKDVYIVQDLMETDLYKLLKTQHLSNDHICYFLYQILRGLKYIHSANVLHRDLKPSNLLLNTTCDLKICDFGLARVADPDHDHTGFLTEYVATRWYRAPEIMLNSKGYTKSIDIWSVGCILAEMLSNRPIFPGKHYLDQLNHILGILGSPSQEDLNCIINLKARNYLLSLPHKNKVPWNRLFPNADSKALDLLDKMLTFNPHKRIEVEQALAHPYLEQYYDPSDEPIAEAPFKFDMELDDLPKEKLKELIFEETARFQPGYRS

| IC50 [1] [nM] | IC50 [2] [nM] | Structure (SMILES) |
| --- | --- | --- |
| 5 to 10 | ≤ 100 | C[C@H]1CCn2cc(-c3cc(Nc4ccnn4C)ncc3Cl)cc2-c2nnc(C3(C(F)(F)F)CCC3)n21 [Compound 262] |
| > 10 | > 100 | Cn1nccc1Nc1cc(-c2cc3n(c2)C[C@H](Cc2ccccc2)n2c-3nnc2C2(C(F)(F)F)CCC2)c(Cl)cn1 [Compound 210] |
| ≤ 5 | ≤ 100 | Cc1cnc(Nc2ccnn2C)cc1-c1cc2n(c1)CC(F)(F)Cn1c-2nnc1C1(C(F)(F)F)CC1 [Compound 87] |
| > 10 | ≤ 100 | Cn1nccc1Nc1cc(-c2cc3n(c2)CCCCn2c-3nnc2C2(C(F)(F)F)CCC2)c(Cl)cn1 [Compound 261] |
| 5 to 10 | ≤ 100 | CO[C@H]1Cn2cc(-c3cc(Nc4ccnn4C)ncc3Cl)cc2-c2nnc(C3(C(F)(F)F)CCC3)n2C1 [Compound 165] |
| ≤ 5 | > 100 | Cn1nccc1Nc1cc(-c2cc3n(c2)CCCn2c-3nnc2C2(C(F)(F)F)CCC2)c(F)cn1 [Compound 241] |
| 5 to 10 | > 100 | COc1cc(Nc2cc(-c3cc4n(c3)CCCn3c-4nnc3C3(C(F)(F)F)CCC3)c(Cl)cn2)n(C)n1 [Compound 269] |
| ≤ 5 | ≤ 100 | Cc1cnc(Nc2ccnn2C)cc1-c1cc2n(c1)CCCn1c-2nnc1C1(C(F)(F)F)CCC1 [Compound 237] |

Further lines, the compound ahead of its results:

| Structure (SMILES) | IC50 [1] [nM] | IC50 [2] [nM] |
| --- | --- | --- |
| Cc1c(-c2ccnc(Nc3ccnn3C)n2)cn2c1-c1nnc(C3(C(F)(F)F)CCC3)n1CCC2 [Compound 13] | ≤ 5 | > 100 |
| Cn1nccc1Nc1cc(-c2cc3n(c2)C[C@H](CF)n2c-3nnc2C(F)(F)c2ccccc2Cl)c(F)cn1 [Compound 192] | > 10 | ≤ 100 |
| Cn1nccc1Nc1ncc(F)c(-c2cc3n(c2)C[C@H](CF)n2c-3nnc2C(F)(F)n2cc(Cl)cn2)n1 [Compound 166] | ≤ 5 | ≤ 100 |
| Cc1cnc(Nc2ccnn2C)cc1-c1cc2n(c1)C[C@H](CF)n1c-2nnc1C(F)(F)c1ccc(F)cc1 [Compound 128] | 5 to 10 | ≤ 100 |
| Cn1nccc1Nc1cc(-c2cc3n(c2)CC2(CC2)n2c-3nnc2C(F)(F)C(F)F)c(F)cn1 [Compound 235] | 5 to 10 | ≤ 100 |
| Cc1cnc(Nc2ccnn2CC(F)F)nc1-c1cc2n(c1)C[C@H](C)n1c-2nnc1C(F)(F)c1ccccc1F [Compound 298] | > 10 | ≤ 100 |
| Cn1nccc1Nc1cc(-c2cc3n(c2)CC(C)(C)n2c-3nnc2C(F)(F)C(F)F)c(Cl)cn1 [Compound 249] | 5 to 10 | ≤ 100 |
| Cc1cnc(Nc2ccnn2C)cc1-c1cc2n(c1)CC(C)(F)Cn1c-2nnc1C(F)(F)C(F)F (centres unmarked) [Compound 72] | 5 to 10 | ≤ 100 |
| Cn1nccc1Nc1cc(-c2cc3n(c2)C(C(F)F)Cn2c-3nnc2C(F)(F)C(F)F)c(Cl)cn1 (centres unmarked) [Compound 260] | 5 to 10 | > 100 |
| Cn1nccc1Nc1cc(-c2cc3n(c2)CC2(COC2)Cn2c-3nnc2C(F)(F)C(F)F)c(Cl)cn1 [Compound 304, 5-chloro-N-(1-methyl-1H-pyrazol-5-yl)-4-(3′-(1,1,2,2-tetrafluoroethyl)-5′H,7′H-spiro[oxetane-3,6′-pyrrolo[1,2-a][1,2,4]triazolo[3,4-c][1,4]diazepin]-10′-yl)pyridin-2-amine] | ≤ 5 | ≤ 100 |
| Cn1nccc1Nc1cc(-c2cc3n(c2)CC(F)(F)Cn2c-3nnc2C(F)(F)C(F)F)c(Cl)cn1 [Compound 113] | 5 to 10 | > 100 |
| Cn1nccc1Nc1cc(-c2cc3n(c2)CC2(CC2)Cn2c-3nnc2C(F)(F)C(F)F)c(Cl)cn1 [Compound 93] | 5 to 10 | ≤ 100 |
| Cc1cnc(Nc2ccnn2C)cc1-c1cc2n(c1)C[C@H](C)n1c-2nnc1C(F)(F)c1ccccc1Cl [Compound 118] | > 10 | ≤ 100 |
| Cn1nccc1Nc1cc(-c2cc3n(c2)C[C@H](CF)n2c(Cc4c(F)cccc4F)nnc2-3)c(Cl)cn1 [Compound 139] | ≤ 5 | ≤ 100 |

— patent US12492210B2, “Tricyclic compounds and their use” (HUTCHISON MEDIPHARMA LIMITED, priority 2019, dated 2025)
